Active and inactive are the calls of the source.
Assays:
cells = assay type: functional, cell-based
[1] = Luminescence Cell-Based Dose Retest to Confirm Inhibitors of Cancer Stem Cells. [Related pubchem assays (depositor defined):AID2717, AID2721]; assay type: functional; conditions: Homo sapiens
[2] = biological target: T1, Nuclear receptor subfamily 0 group B member 1 (Homo sapiens, UniProt P51843); assay type: functional, cell-based;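 note: HEK293T cells transfected with SF-1 and DAX-1 plus StAR promoter luciferase reporter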
T1 sequence (P51843 whole entry): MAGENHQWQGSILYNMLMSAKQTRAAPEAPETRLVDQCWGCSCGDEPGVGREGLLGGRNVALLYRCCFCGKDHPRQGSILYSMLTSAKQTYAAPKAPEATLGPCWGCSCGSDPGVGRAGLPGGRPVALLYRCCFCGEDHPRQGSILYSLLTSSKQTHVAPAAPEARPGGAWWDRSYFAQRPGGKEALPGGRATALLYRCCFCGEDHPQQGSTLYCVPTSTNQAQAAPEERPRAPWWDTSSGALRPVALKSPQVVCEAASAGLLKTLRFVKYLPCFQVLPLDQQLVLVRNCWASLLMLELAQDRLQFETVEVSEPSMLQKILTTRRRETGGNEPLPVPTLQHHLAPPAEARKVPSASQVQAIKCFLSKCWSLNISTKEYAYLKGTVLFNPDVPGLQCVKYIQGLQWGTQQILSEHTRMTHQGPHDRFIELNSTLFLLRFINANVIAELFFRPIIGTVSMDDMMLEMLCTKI

[3] = biological target: T2, Fructose-bisphosphate aldolase (Mycobacterium tuberculosis, UniProt P9WQA3); assay: Fluorescence-based biochemical high throughput dose response assay for inhibitors of the fructose-bisphosphate aldolase (FBA) of M. tuberculosis.; assay type: functional
T2 sequence (P9WQA3 whole entry): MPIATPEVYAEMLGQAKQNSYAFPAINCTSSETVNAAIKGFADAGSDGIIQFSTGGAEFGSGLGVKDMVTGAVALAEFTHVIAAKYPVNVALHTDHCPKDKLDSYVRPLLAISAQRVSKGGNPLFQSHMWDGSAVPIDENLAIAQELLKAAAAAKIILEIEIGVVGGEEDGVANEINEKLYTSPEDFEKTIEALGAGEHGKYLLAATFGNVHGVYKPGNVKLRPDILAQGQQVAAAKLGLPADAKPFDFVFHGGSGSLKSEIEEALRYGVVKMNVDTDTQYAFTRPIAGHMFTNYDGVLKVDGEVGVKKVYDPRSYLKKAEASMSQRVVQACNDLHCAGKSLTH

Cytochrome P450 3A4 = Cytochrome P450 3A4 (Homo sapiens, UniProt P08684);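 note: CYP3A4 tested as one member of a cytochrome P450 panel screen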
Cytochrome P450 2C19 = Cytochrome P450 2C19 (Homo sapiens, UniProt P33261); assay: Cytochrome panel assay with activity outcomes. Panel member name: p450-cyp2c19 Compounds with AC50 equal or less than 10 uM are considered active; assay type: functional; conditions: read-out: AC50
Vero [4] = assay: cells; assay type: functional, cell-based; conditions: Chlorocebus sabaeus
Vero [5] = assay: cells; assay type: functional; conditions: Chlorocebus sabaeus
Vero [6] = assay: Vero cell toxicity, dose response, cytotoxicity control, plate reader, cherry-pick samples (AID 687020); assay type: functional, cell-based; conditions: Chlorocebus sabaeus
Steroidogenic factor 1 = Steroidogenic factor 1 (Homo sapiens, UniProt Q13285); assay: Counterscreen for inverse agonists of the liver receptor homolog-1 (LRH-1; NR5A2): Luminescence-based cell-based high throughput dose response assay to identify inverse agonists of the Steroidogenic Factor 1 Nuclear Receptor (SF1; NR5A1).; assay type: functional
[7] = biological target: Nuclear receptor subfamily 5 group A member 2 (Homo sapiens, UniProt O00482); assay type: functional, cell-based;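 note: HEK293T cells transfected with LRH-1 and a StAR promoter luciferase reporter; potency for inhibitors that lower LRH-1 driven reporter light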
[8] = StAR promoter reporter inhibition counter-screen, dose response, counter-screen for LRH-1 inverse agonist project, cell-based, luminescence, luciferase reporter (AID 651969); assay type: functional
[9] = HEp-2 cell cytotoxicity, dose response, cytotoxicity control for RSV inhibitor project, HTS (AID 2410); assay type: functional; conditions: human respiratory syncytial virus
[10] = growth suppression of PTEN-null colon cells, dose response, cell-based, HCT116 PTEN knockout (AID 1047); assay type: functional;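 note: HCT116 colon tumor cells with PTEN knocked out; cells exposed to compound for 60 hours before readout; potency for loss of cell viability measured by luminescence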
[11] = biological target: T3, Sentrin-specific protease 1 (Homo sapiens, UniProt Q9P0U3); assay: Dose response confirmation of small molecule inhibitors of the catalytic domain of the SUMO protease, SENP1 in a FRET assay.; assay type: functional; conditions: read-out: IC50_Mean
T3 sequence (Q9P0U3 whole entry): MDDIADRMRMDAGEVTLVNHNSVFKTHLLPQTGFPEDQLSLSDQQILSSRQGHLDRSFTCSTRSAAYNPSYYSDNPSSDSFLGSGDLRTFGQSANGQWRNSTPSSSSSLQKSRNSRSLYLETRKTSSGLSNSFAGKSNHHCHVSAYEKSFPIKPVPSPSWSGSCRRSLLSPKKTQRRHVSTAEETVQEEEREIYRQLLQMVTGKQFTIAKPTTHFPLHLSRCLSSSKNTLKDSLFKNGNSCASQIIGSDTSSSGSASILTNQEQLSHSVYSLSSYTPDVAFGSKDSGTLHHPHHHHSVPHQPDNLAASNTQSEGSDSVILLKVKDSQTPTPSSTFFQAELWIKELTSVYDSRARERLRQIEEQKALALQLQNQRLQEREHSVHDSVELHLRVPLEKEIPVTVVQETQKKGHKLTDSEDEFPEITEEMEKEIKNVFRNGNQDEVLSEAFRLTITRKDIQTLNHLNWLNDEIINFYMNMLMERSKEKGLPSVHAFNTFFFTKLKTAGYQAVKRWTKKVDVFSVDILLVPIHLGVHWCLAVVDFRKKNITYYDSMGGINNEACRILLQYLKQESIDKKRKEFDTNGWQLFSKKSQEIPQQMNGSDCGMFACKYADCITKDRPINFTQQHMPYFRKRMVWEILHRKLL

Cytochrome P450 2C9 = Cytochrome P450 2C9 (Homo sapiens, UniProt P11712)
[12] = biological target: Photoreceptor-specific nuclear receptor (Homo sapiens, UniProt Q9Y5X4); assay type: functional, cell-based;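 note: CHO-S cells with Gal4-NCOR and VP16-NR2E3 two-hybrid luciferase reporter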
[13] = biological target: T4, High affinity choline transporter 1 (Homo sapiens, UniProt Q9GZV3); assay: CHT inhibitors, dose response, cell-based, 5-point CRC, membrane potential dye (AID 504840); assay type: functional
T4 sequence (Q9GZV3 whole entry): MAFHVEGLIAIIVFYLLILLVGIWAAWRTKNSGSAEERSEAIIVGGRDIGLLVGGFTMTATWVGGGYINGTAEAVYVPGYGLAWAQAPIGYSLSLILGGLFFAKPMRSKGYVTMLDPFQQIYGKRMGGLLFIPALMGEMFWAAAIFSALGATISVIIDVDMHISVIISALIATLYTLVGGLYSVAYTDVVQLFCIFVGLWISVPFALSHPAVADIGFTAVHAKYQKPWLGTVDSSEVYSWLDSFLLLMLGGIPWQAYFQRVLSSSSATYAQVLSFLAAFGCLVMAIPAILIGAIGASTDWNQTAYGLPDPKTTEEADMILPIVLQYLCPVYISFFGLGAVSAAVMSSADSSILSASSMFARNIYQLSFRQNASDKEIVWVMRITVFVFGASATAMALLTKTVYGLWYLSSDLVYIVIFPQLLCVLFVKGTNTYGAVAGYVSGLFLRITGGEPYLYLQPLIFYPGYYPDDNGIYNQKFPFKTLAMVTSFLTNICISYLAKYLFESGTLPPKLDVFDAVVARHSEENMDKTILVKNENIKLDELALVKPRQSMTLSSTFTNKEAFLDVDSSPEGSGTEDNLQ

[14] = biological target: T4, High affinity choline transporter 1; assay: CHT inhibitors, dose response, cell-based, 10-point CRC, membrane potential dye (AID 588401); assay type: functional;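 note: membrane potential dye fluorescence of choline-evoked depolarization via CHT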
[15] = biological target: T5, Ubiquitin-conjugating enzyme E2 N (Homo sapiens, UniProt P61088); assay type: functional;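 note: Dose-response confirmation in a TR-FRET assay detecting UBC13-driven polyubiquitin chain formation, inhibition measured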
T5 sequence (P61088 whole entry): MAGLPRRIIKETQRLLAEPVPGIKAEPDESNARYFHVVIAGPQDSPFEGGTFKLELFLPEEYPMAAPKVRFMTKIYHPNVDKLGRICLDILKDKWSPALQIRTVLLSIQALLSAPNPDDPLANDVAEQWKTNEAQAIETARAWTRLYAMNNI

CAAX prenyl protease 2 = biological target: T6, CAAX prenyl protease 2 (Saccharomyces cerevisiae S288c, UniProt Q03530); assay type: biochemical
T6 sequence (Q03530 whole entry): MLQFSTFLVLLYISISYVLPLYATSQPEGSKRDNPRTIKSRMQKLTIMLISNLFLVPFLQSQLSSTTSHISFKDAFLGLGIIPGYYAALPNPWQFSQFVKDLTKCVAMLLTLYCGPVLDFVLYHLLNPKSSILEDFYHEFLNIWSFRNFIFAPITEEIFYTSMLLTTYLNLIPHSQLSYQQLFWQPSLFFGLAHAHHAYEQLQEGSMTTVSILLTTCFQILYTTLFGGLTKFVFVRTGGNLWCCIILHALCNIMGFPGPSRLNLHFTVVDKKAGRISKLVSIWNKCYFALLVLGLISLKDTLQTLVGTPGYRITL

P388 = assay: cells; assay type: functional; conditions: Mus musculus
P388/ADR = assay: cells; assay type: functional; conditions: Mus musculus
SN12K1 = assay: cells; assay type: functional; conditions: Homo sapiens

Cytochrome P450 3A4, sequence (P08684 whole entry): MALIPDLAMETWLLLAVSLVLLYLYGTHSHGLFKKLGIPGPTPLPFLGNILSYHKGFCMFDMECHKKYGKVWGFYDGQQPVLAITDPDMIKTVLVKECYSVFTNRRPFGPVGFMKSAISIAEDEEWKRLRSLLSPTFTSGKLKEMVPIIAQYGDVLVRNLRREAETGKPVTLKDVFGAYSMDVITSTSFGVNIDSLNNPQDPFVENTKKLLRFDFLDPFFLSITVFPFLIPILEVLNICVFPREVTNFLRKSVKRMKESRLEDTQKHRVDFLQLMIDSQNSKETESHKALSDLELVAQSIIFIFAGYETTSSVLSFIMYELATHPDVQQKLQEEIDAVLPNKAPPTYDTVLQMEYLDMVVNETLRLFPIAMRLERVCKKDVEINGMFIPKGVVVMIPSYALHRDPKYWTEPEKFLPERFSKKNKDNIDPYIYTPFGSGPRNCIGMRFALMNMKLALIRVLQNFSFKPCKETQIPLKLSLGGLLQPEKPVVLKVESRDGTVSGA
Nuclear receptor subfamily 5 group A member 2, sequence (O00482 whole entry): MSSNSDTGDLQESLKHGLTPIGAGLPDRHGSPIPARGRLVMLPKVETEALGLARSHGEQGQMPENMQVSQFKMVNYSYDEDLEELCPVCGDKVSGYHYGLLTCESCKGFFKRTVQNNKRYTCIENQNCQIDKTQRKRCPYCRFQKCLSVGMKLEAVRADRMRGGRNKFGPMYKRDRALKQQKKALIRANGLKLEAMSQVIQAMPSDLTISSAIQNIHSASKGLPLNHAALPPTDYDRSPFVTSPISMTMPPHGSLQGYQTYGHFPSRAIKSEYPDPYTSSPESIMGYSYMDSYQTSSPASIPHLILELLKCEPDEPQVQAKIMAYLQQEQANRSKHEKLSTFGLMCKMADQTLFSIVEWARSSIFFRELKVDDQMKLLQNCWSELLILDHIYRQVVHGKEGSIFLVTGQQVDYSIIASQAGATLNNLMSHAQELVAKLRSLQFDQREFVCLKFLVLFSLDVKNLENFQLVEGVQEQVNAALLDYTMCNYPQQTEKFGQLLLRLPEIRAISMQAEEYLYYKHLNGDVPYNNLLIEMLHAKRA
Steroidogenic factor 1, sequence (Q13285 whole entry): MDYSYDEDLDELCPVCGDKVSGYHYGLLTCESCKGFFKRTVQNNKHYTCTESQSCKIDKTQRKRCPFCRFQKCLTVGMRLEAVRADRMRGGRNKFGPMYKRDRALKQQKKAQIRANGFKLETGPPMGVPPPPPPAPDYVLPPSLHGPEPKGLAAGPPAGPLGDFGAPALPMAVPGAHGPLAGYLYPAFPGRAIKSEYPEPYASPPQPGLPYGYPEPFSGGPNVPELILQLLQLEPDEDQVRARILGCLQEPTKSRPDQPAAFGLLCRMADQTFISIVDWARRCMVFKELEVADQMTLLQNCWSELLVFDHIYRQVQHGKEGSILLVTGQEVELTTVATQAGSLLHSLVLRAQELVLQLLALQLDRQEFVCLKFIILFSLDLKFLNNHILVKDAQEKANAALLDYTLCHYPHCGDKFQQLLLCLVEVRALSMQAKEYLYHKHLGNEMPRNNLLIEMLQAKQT
Photoreceptor-specific nuclear receptor, sequence (Q9Y5X4 whole entry, the tested form may be a part): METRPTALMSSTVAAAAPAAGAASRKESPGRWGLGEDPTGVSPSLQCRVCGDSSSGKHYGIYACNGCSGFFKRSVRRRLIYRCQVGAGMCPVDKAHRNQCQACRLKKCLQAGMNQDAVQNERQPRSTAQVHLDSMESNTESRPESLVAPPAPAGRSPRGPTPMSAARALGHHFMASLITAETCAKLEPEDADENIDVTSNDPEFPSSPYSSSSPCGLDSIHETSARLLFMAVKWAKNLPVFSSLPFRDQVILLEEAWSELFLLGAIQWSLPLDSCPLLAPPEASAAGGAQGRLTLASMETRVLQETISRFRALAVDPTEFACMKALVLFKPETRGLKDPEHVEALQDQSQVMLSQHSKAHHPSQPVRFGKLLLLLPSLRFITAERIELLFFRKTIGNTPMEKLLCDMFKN
Cytochrome P450 2C19, sequence (P33261 whole entry): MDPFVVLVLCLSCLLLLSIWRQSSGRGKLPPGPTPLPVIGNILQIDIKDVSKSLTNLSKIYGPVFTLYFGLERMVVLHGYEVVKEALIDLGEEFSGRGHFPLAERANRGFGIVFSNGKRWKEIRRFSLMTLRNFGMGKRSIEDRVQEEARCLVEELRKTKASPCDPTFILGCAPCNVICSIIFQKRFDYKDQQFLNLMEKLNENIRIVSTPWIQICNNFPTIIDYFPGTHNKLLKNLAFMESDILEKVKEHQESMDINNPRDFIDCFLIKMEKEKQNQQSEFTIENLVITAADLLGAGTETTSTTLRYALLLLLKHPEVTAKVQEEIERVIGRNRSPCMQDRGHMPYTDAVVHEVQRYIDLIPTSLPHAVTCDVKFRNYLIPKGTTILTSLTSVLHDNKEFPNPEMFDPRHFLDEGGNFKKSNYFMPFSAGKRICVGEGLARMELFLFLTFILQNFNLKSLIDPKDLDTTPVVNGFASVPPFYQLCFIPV
Cytochrome P450 2C9, sequence (P11712 whole entry, the tested form may be a part): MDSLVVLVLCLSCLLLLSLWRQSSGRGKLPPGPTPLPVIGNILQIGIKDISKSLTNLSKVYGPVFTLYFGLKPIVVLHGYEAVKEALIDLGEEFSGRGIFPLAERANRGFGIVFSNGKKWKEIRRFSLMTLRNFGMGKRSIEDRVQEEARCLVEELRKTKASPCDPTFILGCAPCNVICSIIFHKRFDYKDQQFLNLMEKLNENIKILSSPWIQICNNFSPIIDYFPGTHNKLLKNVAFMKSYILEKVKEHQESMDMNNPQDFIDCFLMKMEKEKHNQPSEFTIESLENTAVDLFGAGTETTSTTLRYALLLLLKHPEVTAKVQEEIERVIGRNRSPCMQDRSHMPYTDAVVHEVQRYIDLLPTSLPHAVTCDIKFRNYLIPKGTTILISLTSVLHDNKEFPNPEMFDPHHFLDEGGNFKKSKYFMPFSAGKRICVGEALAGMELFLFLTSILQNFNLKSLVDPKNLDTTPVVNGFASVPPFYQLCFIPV

CCCCCCC[C@@H](C/C=C/CCC(=O)N(C)C/C(=C/Cl)C/C(=C\C(=O)N1CC(OC)=CC1=O)OC)OC
IC50 (cells): > 67.5 µM (inactive) | AC50 [1]: 4.12 µM (active) | IC50 [2]: > 0.278 µM (active)

CCNC(=O)NC(=O)COC(=O)c1ccccc1SCC(=O)NC(=O)NCC
IC50 [3]: 0.969 µM (active)

CCC(C)NC(=O)c1cnn2c(C)c3c(nc12)CCCC3 (centres undefined)
AC50 (Cytochrome P450 3A4): inconclusive | AC50 (Cytochrome P450 2C19): 31.6 µM (inconclusive)

COc1cccc(NC(=O)[C@H](NC(=O)[C@@H]2Cc3ccccc3CN2)c2ccccc2)c1
IC50 (cells): > 67.5 µM (inactive) | IC50 [2]: > 67.5 µM (inactive)

Cc1ccc(C(C[N+](=O)[O-])c2c(-c3ccccc3O)n[nH]c2O)cc1 (centres undefined)
IC50 (Vero [4]): > 25 µM (active) | CC50 (Vero [5]): 9.3 µM (active)

O=C1CCN(CCc2ccccc2)CCN1[C@H](COc1ccccc1)c1ccccc1
AC50 (Vero [6]): 21.8 µM (active)

CN1CCN(c2ncc3nc(-c4ccc(Cl)cc4)c(=O)n(Cc4cccs4)c3n2)CC1
AC50 (Cytochrome P450 3A4): inconclusive

CCOc1ccc(NC(=O)COC(=O)COc2cccc3c2OC(C)(C)C3)cc1
IC50 (Steroidogenic factor 1): 2.55 µM (active) | IC50 [7]: 15.5 µM (inactive) | IC50 [8]: 35.9 µM (inactive)

C=CCNc1nc(Nc2ccc(-c3nc4ccccc4o3)cc2)nc(N2CCOCC2)n1
IC50 [3]: 0.213 µM (active) | CC50 [9]: 27.3 µM (active) | EC50 [10]: 43.5 µM (active)

CC(C)(Oc1ccc(Cl)cc1)C(=O)OCC(=O)NCCc1ccccc1
IC50 (Steroidogenic factor 1): 6.16 µM (active) | IC50 [7]: 5.98 µM (active) | IC50 [8]: 35.9 µM (inactive)

O=C1NC(=S)N/C1=C/c1cccc([N+](=O)[O-])c1O
IC50 [11]: 37.4 µM (inactive) | AC50 (Cytochrome P450 2C9): 12.6 µM (inconclusive)

COc1ccc(S(=O)(=O)N2CCCCC2)cc1N=C(S)Nc1ccccc1
IC50 [12]: 1.22 µM (active)

NC(=O)CCCn1c(C(=O)c2cc(Cl)c(N)c(Cl)c2)c2ccc(C(F)(F)F)cc2[n+]1[O-]
IC50 [13]: 4.47 µM (active) | IC50 [14]: 4.22 µM (active) | IC50 [15]: > 20 µM (inactive) | AC50 (CAAX prenyl protease 2): 3.5 µM (active)

CCC(C)NC(=O)c1ccc2c(c1)N(Cc1ccccc1)C(=O)CS2 (centres undefined)
IC50 (Steroidogenic factor 1): 5.68 µM (active) | IC50 [7]: 16.3 µM (inactive) | IC50 [8]: 35.9 µM (inactive)

CCNc1cc(Cl)nc(SC)n1
IC50 [13]: 4.88 µM (active) | IC50 [14]: 1.79 µM (active)

Cc1ccc(OCCCCCCN2CCNCC2)c(Br)c1
IC50 (Vero [4]): 19.7 µM (active) | CC50 (Vero [5]): 21.8 µM (active)

CCOC(=O)CC[C@H](NC(=O)Cn1cnc2c(OCc3ccccc3)ncnc21)C(=O)OCC
AC50 (Vero [6]): 36 µM (active)

COc1ccc(NC(=O)c2sc(=O)n(Cc3cccc(C(F)(F)F)c3)c2C)cc1OC
IC50 [12]: 13.9 µM (inactive)

C/C=C/C1=CC(=O)C(O)C1O (centres undefined)
GI50 (P388): 15 µM (inactive) | GI50 (P388/ADR): 17.9 µM (inactive) | GI50 (SN12K1): 28.1 µM (inactive)

Cc1csc(/N=C(/NCCN2CCOCC2)Nc2nc(C)cs2)n1
GI50 (P388): > 31.6 µM (inactive) | GI50 (P388/ADR): > 80.4 µM (inactive) | GI50 (SN12K1): > 100 µM (inactive)

N=C(N)NCCCCCCC(=O)NC(O)C(=O)NCCCCNCCCN (centres undefined)
GI50 (P388): 30.1 µM (inactive) | GI50 (P388/ADR): 55.2 µM (inactive) | GI50 (SN12K1): 731 µM (inactive)

COC(=O)C(C/C=C(\C)c1ccc(Cl)cc1)C(C)=O (centres undefined)
GI50 (P388): 20 µM (inactive) | GI50 (P388/ADR): 23.6 µM (inactive) | GI50 (SN12K1): 21.8 µM (inactive)

O=C1c2ccccc2/C(=C\c2ccc(Br)nc2)N1c1ccccc1
AC50 (Vero [6]): 38.8 µM (active)

c1ccc(CCCCN2CCC(c3ccccc3)CC2)cc1
AC50 (Cytochrome P450 3A4): inconclusive

O=c1oc2ccccc2cc1-c1ccccc1
IC50 [3]: 2.78 µM (active)

CNC(=O)[C@H]1O[C@@H](n2cnc3c(NCc4cccc(I)c4)ncnc32)[C@H](O)[C@@H]1O [IB-MECA]
IC50 [13]: 2.37 µM (active) | IC50 [14]: 1.83 µM (active)
